Ends that are not written are not given here.
Tested on: rabbit thoracic aorta strips
Experiment: Vasorelaxant activity against noradrenaline-induced tension in aorta strips
Conditions: for Relative Potency: potency of BG-3009 taken arbitrarily as 100; for Ratio (noradrenaline EC50 in the presence of compound divided by EC50 with noradrenaline alone): added 5 min before noradrenaline
Procedure: The vasorelaxant activities of the SNP of this invention are determined in vitro using freshly prepared rabbit thoracic aorta strips, helically cut according to the method of Furchgott et al., 1953 J. Pharmacol. Exp. Therap. 108, 129. One end of each strip is attached to a holding rod, the other end is equipped with a silk thread which is kept under a tension of about 5 g, and the complete assembly is kept over night at 4° C. in oxygenated Krebs solution. On the day of the experiment each strip is set up in a 10 ml bath of oxygenated (5% CO2) Krebs solution at 37° C. and the thread is attached to an isometric force transducer (Grass Instruments Model FT.03) connected to a polygraph (Grass Instruments Model 5). A resting tension of 5 g is applied to each strip and is readjusted until a stable resting tension is attained (45-60 minutes). The strips are then challenged repeatedly with the same dose of noradrenaline to ensure that the induced increase in tension is uniform. The stock solution of noradrenaline bitartrate (Sigma Chemical Co.) is made up in 0.001N HCl, and dilutions are freshly prepared in deionized water containing 0.0001M ascorbic acid and are kept protected from light during the experiments. In each experiment two cumulative full dose-response determinations to noradrenaline alone are carried out consecutively on one strip (time control). On the other strips dose-response determinations are done with noradrenaline alone, and then repeated five minutes after having added the compound to be tested to concentrations of 2, 5, 50, and 500 ng/ml, respectively. The tension elicited by each concentration of noradrenaline is expressed as a percentage of the maximal response obtained with noradrenaline, and the concentration of noradrenaline producing a tension equal to 50% of the maximal response is calculated (EC50). The same calculations are also carried out with the results obtained in the presence of the various concentrations of the compound to be tested, and the EC50 thus obtained is divided by the EC50 obtained in the absence of said compound, to arrive at a ration which is clear indication of the potency of the respective compound.
The SNP of formula 1 in which R^1 is H-D-Tyr, R^2 is Ile, and R^3 is OH, identified by the code number 05-22-0318 is tested for its vasorelaxant activities and compared with a known ANP composed of 28 amino acid residues and identified by the code number BG-3009. The test method is described above in some detail. Two rabbits are sacrificed and the thoracic aorta prepared from each animal is helically cut so as to obtain five strips from each aorta. One strip from each aorta is used for time control and is exposed to the full range of concentrations of noradrenaline alone at the beginning and at the end of the experiment, and the concentrations of noradrenaline giving 50% of the maximal response are calculated (EC50). […] One strip from each of the remaining two pairs of strips from each aorta is then exposed to the full range of concentrations of noradrenaline alone as described above, and the responses are noted. The other strip from the same pair is first exposed to concentrations of 2, 5, 50, and 500 ng/ml of the compound to be tested, respectively, and five minutes after having added the above concentrations of the compound to be tested the strip is challenged with noradrenaline at increasing concentrations and the responses obtained are noted again. The EC50 obtained in the presence of the respective concentration of the compound to be tested is then divided by the EC50 obtained in the absence of said compound with noradrenaline alone, and the ratio of the two EC50's is calculated to give a clear measure of the vasorelaxant properties of said compound. Furthermore, when taking the potency of the reference compound having the code number BG-3009 arbitrarily as 100 the relative potencies of the above SNP (code No. 05-22-0318) at the respective levels of concentration are also calculated. […]

## BG-3009: known ANP composed of 28 amino acid residues, identical with the ANP described by Flynn et al. (SLRRSSCFGGRIDRIGAQSGLGCNSFRY; not fully specified; ends and bridges not checked; UniProt P01161 123-150, looked up)
2 ng/ml
  Relative Potency: 100
5 ng/ml
  Relative Potency: 100
50 ng/ml
  Relative Potency: 100
500 ng/ml
  Relative Potency: 100
Compound concentration 2 ng/ml
  Ratio (noradrenaline EC50 in the presence of compound divided by EC50 with noradrenaline alone): 2.9
Compound concentration 5 ng/ml
  Ratio (noradrenaline EC50 in the presence of compound divided by EC50 with noradrenaline alone): 3.8
Compound concentration 50 ng/ml
  Ratio (noradrenaline EC50 in the presence of compound divided by EC50 with noradrenaline alone): 25.8
Compound concentration 500 ng/ml
  Ratio (noradrenaline EC50 in the presence of compound divided by EC50 with noradrenaline alone): 26.1

— patent US4824937A, “Synthetic natriuretic peptides” (501 Advanced Peptide Development, Ltd., priority 1986, dated 1989)
